In ChEMBL document CHEMBL1201862, “PubChem BioAssay data set” (2004):
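Results reflect a 48-hour exposure of cells in 96-well plates to compound at five concentrations. At the GI50, growth is halved.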 Activity calls are given as the source filed them. Rule as the data show it: active = GI50 up to about 1.1 µM and inactive = higher.

Experiments:
Assay in all cases: growth of human tumour cells (NCI), 48 h
SNB-75 = test system: SNB-75
UACC-257 = test system: UACC-257
NCI-H522 = test system: NCI-H522
M14 = test system: M14
786-0 = test system: 786-0
NCI-H23 = test system: NCI-H23
NCI-H226 = test system: NCI-H226
OVCAR-3 = test system: OVCAR-3
NCI-H460 = test system: NCI-H460
A549 = test system: A549
M19-MEL = test system: M19-MEL
SK-MEL-5 = test system: SK-MEL-5
KM12 = test system: KM12
SK-OV-3 = test system: SK-OV-3
OVCAR-5 = test system: OVCAR-5
HL-60 = test system: HL-60
XF498 = test system: XF498
HOP-62 = test system: HOP-62
UO-31 = test system: UO-31
SF-268 = test system: SF-268
CCRF-CEM = test system: CCRF-CEM
SW-620 = test system: SW-620
HCC 2998 = test system: HCC 2998
MOLT-4 = test system: MOLT-4
IGROV-1 = test system: IGROV-1
DMS-114 = test system: DMS-114
SF-539 = test system: SF-539
A498 = test system: A498
HT-29 = test system: HT-29
UACC-62 = test system: UACC-62
RPMI-8226 = test system: RPMI-8226
ACHN = test system: ACHN
LOX IMVI = test system: LOX IMVI
KM-20L2 = test system: KM-20L2
HCT-116 = test system: HCT-116
K562 = test system: K562
SNB-78 = test system: SNB-78
EKVX = test system: EKVX
TK-10 = test system: TK-10
HOP-92 = test system: HOP-92
SK-MEL-28 = test system: SK-MEL-28
RXF 393 = test system: RXF 393
SK-MEL-2 = test system: SK-MEL-2
COLO 205 = test system: COLO 205
SF-295 = test system: SF-295
Malme-3M = test system: Malme-3M
DLD-1 = test system: DLD-1
OVCAR-8 = test system: OVCAR-8
U-251 = test system: U-251
SNB-19 = test system: SNB-19
CAKI-1 = test system: CAKI-1
DMS-273 = test system: DMS-273
SN12C = test system: SN12C
OVCAR-4 = test system: OVCAR-4
HCT-15 = test system: HCT-15
LXFL 529 = test system: LXFL 529

For `N#Cc1ccccc1NC(=O)C(=O)C(C(=O)c1ccccc1-c1ccccc1)C1OC(=O)c2ccccc21` (stereo unspecified), the GI50 (SNB-75) was 14.6 µM (inactive), the GI50 (UACC-257) was 15.2 µM (inactive) and the GI50 (NCI-H522) was 7.73 µM (inactive). For the same compound, the GI50 (M14) was 15.4 µM (inactive), the GI50 (786-0) was 14.8 µM (inactive) and the GI50 (NCI-H23) was 11.8 µM (inactive). The GI50 (NCI-H226) was 2.58 µM (inactive), the GI50 (OVCAR-3) was 15.8 µM (inactive) and the GI50 (NCI-H460) was 18.2 µM (inactive). The GI50 (A549) was > 100 µM (inactive), the GI50 (M19-MEL) was 14.8 µM (inactive) and the GI50 (SK-MEL-5) was > 100 µM (inactive). The GI50 (KM12) was 18.1 µM (inactive), the GI50 (SK-OV-3) was 41.2 µM (inactive) and the GI50 (OVCAR-5) was 17.8 µM (inactive). The GI50 (HL-60) was 14 µM (inactive), the GI50 (XF498) was 16 µM (inactive) and the GI50 (HOP-62) was 11.9 µM (inactive). For the same compound, the GI50 (UO-31) was > 10 µM (inactive), the GI50 (SF-268) was 14.3 µM (inactive) and the GI50 (CCRF-CEM) was 18.4 µM (inactive). The GI50 (SW-620) was 29 µM (inactive), the GI50 (HCC 2998) was 15.5 µM (inactive) and the GI50 (MOLT-4) was 13.9 µM (inactive). The GI50 (IGROV-1) was 23.5 µM (inactive), the GI50 (DMS-114) was 15.5 µM (inactive) and the GI50 (SF-539) was 10.7 µM (inactive). The GI50 (A498) was 25.4 µM (inactive), the GI50 (HT-29) was 33.3 µM (inactive) and the GI50 (UACC-62) was 16.7 µM (inactive). The GI50 (RPMI-8226) was 11.7 µM (inactive), the GI50 (ACHN) was 53.6 µM (inactive) and the GI50 (LOX IMVI) was 15 µM (inactive). The GI50 (KM-20L2) was 20.9 µM (inactive), the GI50 (HCT-116) was 11 µM (inactive) and the GI50 (K562) was 21.7 µM (inactive). For the same compound, the GI50 (SNB-78) was 11.2 µM (inactive), the GI50 (EKVX) was 18.5 µM (inactive) and the GI50 (TK-10) was > 10 µM (inactive). For the same compound, the GI50 (HOP-92) was 20 µM (inactive), the GI50 (SK-MEL-28) was 18.2 µM (inactive) and the GI50 (RXF 393) was 11.6 µM (inactive). For the same compound, the GI50 (SK-MEL-2) was 16 µM (inactive), the GI50 (COLO 205) was 21.1 µM (inactive) and the GI50 (SF-295) was 17.6 µM (inactive). The GI50 (Malme-3M) was 10.4 µM (inactive), the GI50 (DLD-1) was 16 µM (inactive) and the GI50 (OVCAR-8) was 20.3 µM (inactive). For the same compound, the GI50 (U-251) was 11.7 µM (inactive).

For `C[n+]1c2ccccc2c(/C=N\NS(=O)(=O)c2ccc(Cl)cc2)c2ccccc21`, the GI50 (SNB-19) was 59.2 µM (inactive), the GI50 (SNB-75) was 39.4 µM (inactive) and the GI50 (UACC-257) was > 100 µM (inactive). The GI50 (CAKI-1) was 29.7 µM (inactive), the GI50 (NCI-H522) was 46.8 µM (inactive) and the GI50 (M14) was 56.4 µM (inactive). The GI50 (786-0) was 51.9 µM (inactive), the GI50 (NCI-H23) was > 100 µM (inactive) and the GI50 (NCI-H226) was 68.2 µM (inactive). For the same compound, the GI50 (DMS-273) was 41.8 µM (inactive), the GI50 (SN12C) was 56.8 µM (inactive) and the GI50 (OVCAR-3) was 41.8 µM (inactive). The GI50 (NCI-H460) was 32.4 µM (inactive), the GI50 (OVCAR-4) was > 100 µM (inactive) and the GI50 (A549) was 23 µM (inactive). For the same compound, the GI50 (M19-MEL) was 81.7 µM (inactive), the GI50 (SK-MEL-5) was 42 µM (inactive) and the GI50 (KM12) was 44.2 µM (inactive). For the same compound, the GI50 (SK-OV-3) was > 100 µM (inactive), the GI50 (OVCAR-5) was 97.7 µM (inactive) and the GI50 (HL-60) was 30.1 µM (inactive). For the same compound, the GI50 (XF498) was 27.3 µM (inactive), the GI50 (HCT-15) was 35.9 µM and the GI50 (HOP-62) was > 100 µM (inactive). For the same compound, the GI50 (UO-31) was 27.3 µM (inactive), the GI50 (SF-268) was 69.2 µM (inactive) and the GI50 (CCRF-CEM) was 15.1 µM (inactive). For the same compound, the GI50 (SW-620) was 39.5 µM (inactive), the GI50 (HCC 2998) was > 100 µM (inactive) and the GI50 (MOLT-4) was 32.9 µM (inactive). The GI50 (IGROV-1) was 43 µM (inactive), the GI50 (DMS-114) was 28.3 µM (inactive) and the GI50 (SF-539) was 87.5 µM (inactive). For the same compound, the GI50 (A498) was 35.6 µM (inactive), the GI50 (HT-29) was 34 µM (inactive) and the GI50 (UACC-62) was 37.8 µM (inactive). The GI50 (RPMI-8226) was 42.6 µM (inactive), the GI50 (ACHN) was 68.2 µM (inactive) and the GI50 (LOX IMVI) was 16.8 µM (inactive). The GI50 (KM-20L2) was 42.4 µM (inactive), the GI50 (HCT-116) was 33.7 µM (inactive) and the GI50 (K562) was 17.7 µM (inactive). The GI50 (SNB-78) was > 100 µM (inactive), the GI50 (EKVX) was > 100 µM (inactive) and the GI50 (TK-10) was 74 µM (inactive). The GI50 (HOP-92) was 48.8 µM (inactive), the GI50 (SK-MEL-28) was 94.8 µM (inactive) and the GI50 (RXF 393) was 57.3 µM (inactive). The GI50 (SK-MEL-2) was 46.7 µM (inactive), the GI50 (SF-295) was 59.4 µM (inactive) and the GI50 (Malme-3M) was > 100 µM (inactive). The GI50 (DLD-1) was 67.5 µM (inactive), the GI50 (OVCAR-8) was 40.3 µM (inactive) and the GI50 (U-251) was 45.8 µM (inactive).

In the case of `CN=S(=O)(C[C@]1(O)CC2OC1C1OC(C)(C)OC21)c1ccccc1` (stereo partly specified), the GI50 (SNB-19) is reported as > 100 µM (inactive), the GI50 (SNB-75) is reported as 83 µM (inactive) and the GI50 (UACC-257) is reported as > 100 µM (inactive). For the same compound, the GI50 (CAKI-1) was > 100 µM (inactive), the GI50 (LXFL 529) was > 100 µM (inactive) and the GI50 (NCI-H522) was > 100 µM (inactive). For the same compound, the GI50 (M14) was > 100 µM (inactive), the GI50 (786-0) was > 100 µM (inactive) and the GI50 (NCI-H23) was > 100 µM (inactive). The GI50 (NCI-H226) was > 100 µM (inactive), the GI50 (DMS-273) was > 100 µM (inactive) and the GI50 (SN12C) was > 100 µM (inactive). For the same compound, the GI50 (OVCAR-3) was > 100 µM (inactive), the GI50 (NCI-H460) was > 100 µM (inactive) and the GI50 (OVCAR-4) was > 100 µM (inactive). The GI50 (A549) was > 100 µM (inactive), the GI50 (M19-MEL) was > 100 µM (inactive) and the GI50 (SK-MEL-5) was > 100 µM (inactive). The GI50 (KM12) was > 100 µM (inactive), the GI50 (SK-OV-3) was > 100 µM (inactive) and the GI50 (OVCAR-5) was > 100 µM (inactive). For the same compound, the GI50 (HL-60) was > 100 µM (inactive), the GI50 (XF498) was > 100 µM (inactive) and the GI50 (HCT-15) was greater than 100 µM. For the same compound, the GI50 (HOP-62) was > 100 µM (inactive), the GI50 (SF-268) was > 100 µM (inactive) and the GI50 (CCRF-CEM) was > 100 µM (inactive). The GI50 (SW-620) was > 100 µM (inactive), the GI50 (HCC 2998) was > 100 µM (inactive) and the GI50 (MOLT-4) was > 100 µM (inactive). The GI50 (IGROV-1) was > 100 µM (inactive), the GI50 (DMS-114) was > 100 µM (inactive) and the GI50 (SF-539) was > 100 µM (inactive). The GI50 (A498) was > 100 µM (inactive), the GI50 (HT-29) was > 100 µM (inactive) and the GI50 (UACC-62) was > 100 µM (inactive). The GI50 (RPMI-8226) was > 100 µM (inactive), the GI50 (ACHN) was > 100 µM (inactive) and the GI50 (KM-20L2) was > 100 µM (inactive). For the same compound, the GI50 (HCT-116) was > 100 µM (inactive), the GI50 (K562) was > 100 µM (inactive) and the GI50 (SNB-78) was > 100 µM (inactive). For the same compound, the GI50 (EKVX) was > 100 µM (inactive), the GI50 (TK-10) was > 100 µM (inactive) and the GI50 (HOP-92) was > 100 µM (inactive). For the same compound, the GI50 (SK-MEL-28) was > 100 µM (inactive), the GI50 (RXF 393) was > 100 µM (inactive) and the GI50 (SK-MEL-2) was > 100 µM (inactive). For the same compound, the GI50 (COLO 205) was > 100 µM (inactive), the GI50 (SF-295) was > 100 µM (inactive) and the GI50 (Malme-3M) was > 100 µM (inactive). For the same compound, the GI50 (OVCAR-8) was > 100 µM (inactive) and the GI50 (U-251) was > 100 µM (inactive).
